In US20080199518A1, “Controlled-release formulation of piperazine-piperidine antagonists and agonists of the 5-HT1A receptor having enhanced intestinal dissolution” (priority 2006, published 2008):
Like-named read-outs stand apart in the source and are kept apart here.

Assays:
[1] = physchem; type: physicochemical
Experimental: The solubility of one of the compounds described herein, 5-fluoro-8-{4-[4-(6-methoxyquinolin-8-yl)piperazin-1-yl]piperidin-1-yl}quinoline, as a function of pH was determined experimentally. In the study, suspensions of about 0.5-40 mg/mL of the compound were prepared in water and various concentrations of hydrochloric acid and sodium hydroxide. The suspensions were measured for pH after equilibration at ambient temperature. The suspensions were then filtered through a suitable filter for concentrated samples and centrifuged for lower concentrations, with confirmation that the supernatants were particulate-free by laser. The filtrates were then analyzed by HPLC.

[2] = not told

SMILES	solubility ([1]; pH greater than about six)	solubility ([1]; water, thermodynamic from solid, trisuccinate salt, aqueous, read-out: aqueous solubility)	permeability [2]	solubility around neutral pH of the lower gastrointestinal tract [1]	water solubility [1]
COc1cc(N2CCN(C3CCN(c4ccc(F)c5cccnc45)CC3)CC2)c2ncccc2c1.O=C(O)CCC(=O)O.O=C(O)CCC(=O)O.O=C(O)CCC(=O)O [5-fluoro-8-{4-[4-(6-methoxyquinolin-8-yl)piperazin-1-yl]piperidin-1-yl}quinoline trisuccinate]	sub-microgram per milliliter level	~1000 µg/mL	–	–	–
COc1cc(N2CCN(C3CCN(c4ccc(F)c5cccnc45)CC3)CC2)c2ncccc2c1 [5-fluoro-8-{4-[4-[(6-methoxyquinolin-8-yl)piperazin-1-yl]piperidin-1-yl}quinoline]	–	–	high permeability	less than 1 μg/mL	approximately 0.04 μg/mL
